Experimental data: patent US11179346B2, “Rupatadine-containing patch” (TEIKOKU SEIYAKU CO., LTD., priority 2017, dated 2021)

Legend:
[1] = Degree of solubility of rupatadine free base in each plaster ingredient (HPLC method); type: physicochemical
From the text: Test Example 1: Investigation of Degree of Solubility of Rupatadine Free Base in Each Ingredient
The degree of solubility of a rupatadine free base (sometimes also referred to as “rupatadine base”) as an active ingredient in each plaster ingredient was investigated.
Levulinic acid as a solubilizer, oleyl oleate and isopropyl myristate (IPM) as a softener, and lauromacrogol (BL-4,2: polyoxyethylene lauryl ether) as a surfactant were selected. The degree of solubility of the rupatadine base in each ingredient was investigated.
To 5 mL of each of levulinic acid, oleyl oleate, isopropyl myristate (IPM), and lauromacrogol (BL-4,2), an excessive amount of the rupatadine base was added and stirred. The mixture was filtered through a 0.45-μm membrane filter, to remove an undissolved substance. To 200 μL of the filtrate, methanol was added using a measuring flask to adjust the volume to a desired volume. The mixture was measured by HPLC.
A rupatadine concentration was measured by an external calibration curve method, and the degree of solubility was calculated by specific gravity conversion.

[2] = Degree of solubility of rupatadine base in acrylic adhesive (gravimetric method, presence or absence of crystal); type: physicochemical; conditions: in acrylic adhesive (OH group), 100 μm plaster, crystal observed by microscope
Method: For comparison, the degree of solubility of the rupatadine base in an acrylic adhesive as an adhesive base was also investigated.
The degree of solubility of the rupatadine base in the acrylic adhesive was tested by a gravimetric method.
To 1 g (solid content) of the acrylic adhesive, the rupatadine base was added, and the mixture was stirred and degassed by ultrasonic wave.
The adhesive solution was applied so as to have a thickness of 100 μm, and dried. A plaster was observed by a microscope (manufactured by KEYENCE CORPORATION).
The degree of solubility was determined by the presence or absence of crystal.

Cc1cncc(CN2CCC(=C3c4ccc(Cl)cc4CCc4cccnc43)CC2)c1 [rupatadine base, 8-chloro-11-[1-[(5-methyl-3-pyridinyl)methyl]-piperidin-4-ylidene]-6,11-dihydro-5H-benzo[5,6]cyclohepta[1,2-b]pyridine]
Solubility (w/w %) ([1]; in isopropyl myristate (softener)): 2 w/w % | Solubility (w/w %) ([1]; in lauromacrogol (BL-4,2) (surfactant)): 4 w/w % | Solubility (w/w %) ([1]; in levulinic acid (solubilizer)): 29 w/w % | Solubility (w/w %) ([1]; in oleyl oleate (softener)): 2 w/w % | Solubility (w/w %) [2]: ≤15 to 16< w/w %
